Test results taken from US5668134A, “Method for preventing or reducing photosensitivity and/or phototoxicity reactions to medications” (priority 1994, dated 1997).
“And” between values parts separate entries of the source, which are not always exact repeats. Identical values can stand only once. Counter-ions that a name gives are not always drawn.

Columns and labels:
healthy male volunteers = settings: lomefloxacin 400 mg BID, ciprofloxacin 750 mg BID, 14 days, UVA and UVA/UVB
Procedure: This study was a single center, open label, multiple does, parallel, randomized study in healthy male volunteers.
Drug administration began on day three. Single dermatological sites were chosen on each of the subjects to be the site which was to be evaluated over time. Twenty joules of radiation were administered to these sites on day 1, day 6 and day 16. Also, graded UVA-UVB exposure was performed on days 2, 7 and 16. The dermatological responses were scored at 1, 24 and 48 hours after each UVA exposure and at 24 hours after the combined UVA-UVB exposure. The definitions which were employed in interpreting this study were that photosensitivity was to be assessed by exposure duration associated with the smallest dermatological response score above zero, which was defined as the minimal erythrogenic dose after the UVA-UVB exposure. The photosensitivity and/or phototoxicity reaction was taken by definition to be an increase of equal to or greater than 1 unit in what was defined as a dermatological response over baseline values after the UVA exposure.

[1] = tested on: skin of healthy volunteers; test: Example 5: Minimum Erythema Dose with UVA radiation, morning vs evening dosing; assay type: in vivo, human; settings: for phototoxicity of evening versus morning dosing: UVA exposure 16 hours vs 2 hours after dosing; for DELAYED MED / IMMEDIATE MED / MED, 0 H / MED, 3 H / MED, 6 H / MED, 24 H / MED, 48 H / MED, 72 H / CHANGE BASELINE, delayed MED / CHANGE BASELINE, immediate MED: individual subjects; for MED, 0 H: 0 H post-radiation; for MED, 3 H: 3 H post-radiation; for MED, 6 H: 6 H post-radiation; for MED, 24 H: 24 H post-radiation; for MED, 48 H: 48 H post-radiation; for MED, 72 H: 72 H post-radiation; for CHANGE BASELINE, delayed MED / CHANGE BASELINE, immediate MED: baseline minus posttreatment
Procedure: This study describes a randomized, single site, double-blind, two treatment, two period, two sequence, cross-over clinical pharmacology study which was performed according to FDA regulations in 27 healthy normal volunteers with fair skin that could easily burn when exposed to sunlight, to assess the photosensitivity and/or phototoxicity potential of oral 400 mg lomefloxacin hydrochloride (MAXAQUIN®) administered once daily for 4 consecutive days either in the morning (morning dose group), as described hereinbelow, or in the early evening (evening dose group), as described hereinbelow. Irradiation and evaluation of irradiated sites began at 2 hours after the final morning dose of lomefloxacin HCl for the morning dosing group, and began 16 hours after the final evening dose of lomefloxacin HCl for the evening dosing group.
"Baseline MED" was defined as the lowest dose of UVA radiation alone, or UVA and UVB radiation, that produced a minimal perceptible erythema filling a 1 cm^2 patch of skin 24 hours post radiation.
"Delayed MED" was defined as the lowest dose of UVA radiation alone, or UVA and UVB radiation, that produced a minimal perceptible erythema filling a 1 cm^2 patch of skin, when testing the area 24, 48 and 72 hours post radiation.
"Immediate MED" was defined as the lowest dose producing minimal perceptible erythema filling a 1 cm^2 patch of skin when testing the area 0, 3, and 6 hours post radiation.
After all baseline procedures, including determination of baseline MEDUVA and MEDUVA+UVB values 24 hours post-radiation, were completed, all subjects started Study Day 1 of Treatment Period 1 with an evening dose of study medication, and completed this phase of the treatment regime with a morning dose of study medication on Study Day 5. Two hours after the final morning dose, and 16 hours after the last evening dose, a randomly selected site composed of six patches of skin, each with an area of one square centimeter, on the back or buttock of the subject was irradiated with incremental amounts of energy. Immediately following irradiation (0 hour), and at 3, 6, 24, 48 and 72 hours following irradiation, each skin patch area was evaluated to determine the MEDs, and assess the severity of skin reaction using a five-grade system, as described hereinbelow. The lowest of the MEDs determined at 0, 3 and 6 hours post-radiation were referred to as immediate MEDs, and the lowest of the MEDs determined at 24, 48 and 72 hours post-radiation were referred to as delayed MEDs.
The source of radiation employed was an Oriel (Santa Monica, Calif.) Xenon Arc 1000 watt solar simulator, with the following filters: WG320 filter (1 mm thick, emitting full spectrum UVA and UVB radiation), WG335 filter (3 mm thick, emitting almost exclusively UVA radiation) or UG11 filter (to filter infrared radiation).
For predrug exposure MED determination, 2 sets each with six 1 cm^2 patches on the back or buttocks were irradiated with increasing doses of UVA and UVB radiation, and UVA radiation alone, up to 7 days prior to beginning of drug treatment. With respect to UVA light source, irradiation began at 5 J/cm^2, and was increased by increments of 5 J/cm^2 using a different skin patch for each exposure. The maximum radiation dose was 30 J/cm^2. Subjects with MED greater than 30 J/cm^2 were excluded from the study. […] A different skin patch was used for each exposure.
Two hours after the administration of the last dose of Treatment Period 1 (a.m. dose), the two randomly selected sites on each subject's back or buttocks were exposed one to UVA and UVB radiation, and one to UVA radiation alone. In order to protect the subjects from excessive radiation, as well as assess the true Minimum Erythema Dose (MED), the posttreatment irradiation doses for each subject was adjusted in accordance with their pretreatment MEDs. The following table was used to determine each subject's minimum and maximum posttreatment radiation dose: […]

[2] = tested on: uncomplicated urinary tract infection; test: Example 4: evening dosing in uncomplicated urinary tract infection; assay type: in vivo, human; settings: 200 mg at night for 3 nights
Procedure: Patients with uncomplicated urinary tract infection were randomized to receive lomefloxacin HCl 200 mg taken at night for 3 nights and trimethoprim in a double-blind study.

Serum protein binding = assay type: in vitro ADME
[3] = mean, UVA, a.m. dosing, p=0.002

CCn1cc(C(=O)O)c(=O)c2cc(F)c(N3CCNC(C)C3)c(F)c21 (racemic) [lomefloxacin HCl, monohydrochloride salt of (±)-1-ethyl-6,8-difluoro-1,4-dihydro-7-(3-methyl-1-piperazinyl)-4-oxo-3-quinolinecarboxylic acid]
rate of photosensitivity reactions (healthy male volunteers): 64% | phototoxicity of evening versus morning dosing [1]: less sensitive to light | phototoxicity of evening versus morning dosing ([1]; listed as MAXAQUIN®): significantly less phototoxic | mean change of delayed MEDUVA, a.m. versus p.m. ([1]; in vivo): statistically significant difference | treatment effect on delayed MEDUVA, conservative analysis ([1]; in vivo): statistically significant treatment effect | DELAYED MED ([1]; UVA, a.m. dosing): 10.000 J/cm^2 and 20.000 J/cm^2 and 15.000 J/cm^2 and 30.000 J/cm^2 and 25.000 J/cm^2 | IMMEDIATE MED ([1]; UVA, a.m. dosing): 15.000 J/cm^2 and 20.000 J/cm^2 and 30.000 J/cm^2 and 25.000 J/cm^2 | MED, 0 H ([1]; UVA, a.m. dosing): 25.000 J/cm^2 and 30.000 J/cm^2 and 15.000 J/cm^2 | MED, 3 H ([1]; UVA, a.m. dosing): 15.000 J/cm^2 and 20.000 J/cm^2 and 25.000 J/cm^2 | MED, 6 H ([1]; UVA, a.m. dosing): 15.000 J/cm^2 and 20.000 J/cm^2 and 30.000 J/cm^2 and 25.000 J/cm^2 | MED, 24 H ([1]; UVA, a.m. dosing): 10.000 J/cm^2 and 20.000 J/cm^2 and 15.000 J/cm^2 and 30.000 J/cm^2 and 25.000 J/cm^2 | MED, 48 H ([1]; UVA, a.m. dosing): 15.000 J/cm^2 and 25.000 J/cm^2 and 30.000 J/cm^2 and 20.000 J/cm^2 | MED, 72 H ([1]; UVA, a.m. dosing): 15.000 J/cm^2 and 25.000 J/cm^2 and 20.000 J/cm^2 and 30.000 J/cm^2 | CHANGE BASELINE, delayed MED ([1]; UVA, a.m. dosing): 20.000 J/cm^2 and 5.000 J/cm^2 and 10.000 J/cm^2 and -5.000 J/cm^2 | CHANGE BASELINE, immediate MED ([1]; UVA, a.m. dosing): 15.000 J/cm^2 and 5.000 J/cm^2 and 10.000 J/cm^2 and -5.000 J/cm^2 | DELAYED MED ([1]; UVA, p.m. dosing): 30.000 J/cm^2 and 25.000 J/cm^2 and 20.000 J/cm^2 | IMMEDIATE MED ([1]; UVA, p.m. dosing): 30.000 J/cm^2 and 25.000 J/cm^2 | MED, 0 H ([1]; UVA, p.m. dosing): 30.000 J/cm^2 and 25.000 J/cm^2 | MED, 3 H ([1]; UVA, p.m. dosing): 30.000 J/cm^2 | MED, 6 H ([1]; UVA, p.m. dosing): 30.000 J/cm^2 and 25.000 J/cm^2 | MED, 24 H ([1]; UVA, p.m. dosing): 30.000 J/cm^2 and 25.000 J/cm^2 | MED, 48 H ([1]; UVA, p.m. dosing): 30.000 J/cm^2 and 20.000 J/cm^2 and 25.000 J/cm^2 | MED, 72 H ([1]; UVA, p.m. dosing): 30.000 J/cm^2 and 25.000 J/cm^2 | CHANGE BASELINE, delayed MED ([1]; UVA, p.m. dosing): -5.000 J/cm^2 and 0.000 J/cm^2 and 5.000 J/cm^2 | CHANGE BASELINE, immediate MED ([1]; UVA, p.m. dosing): -5.000 J/cm^2 and 5.000 J/cm^2 and 0.000 J/cm^2 | DELAYED MED, mean ([1]; mean, UVA, a.m. dosing): 20.000 J/cm^2 | IMMEDIATE MED, mean ([1]; mean, UVA, a.m. dosing): 19.615 J/cm^2 | MED, 0 H, mean ([1]; mean, UVA, a.m. dosing): 25.500 J/cm^2 | MED, 3 H, mean ([1]; mean, UVA, a.m. dosing): 20.833 J/cm^2 | MED, 6 H, mean ([1]; mean, UVA, a.m. dosing): 19.615 J/cm^2 | MED, 24 H, mean ([1]; mean, UVA, a.m. dosing): 20.385 J/cm^2 | MED, 48 H, mean ([1]; mean, UVA, a.m. dosing): 22.692 J/cm^2 | MED, 72 H, mean ([1]; mean, UVA, a.m. dosing): 23.077 J/cm^2 | CHANGE BASELINE, delayed MED, mean [1, 3]: 6.5 J/cm^2 and 6.538 J/cm^2 | CHANGE BASELINE, immediate MED, mean [1, 3]: 6.923 J/cm^2 and 6.9 J/cm^2 | DELAYED MED, mean ([1]; mean, UVA, p.m. dosing): 27.917 J/cm^2 | IMMEDIATE MED, mean ([1]; mean, UVA, p.m. dosing): 28.750 J/cm^2 | MED, 0 H, mean ([1]; mean, UVA, p.m. dosing): 28.333 J/cm^2 | MED, 3 H, mean ([1]; mean, UVA, p.m. dosing): 30.000 J/cm^2 | MED, 6 H, mean ([1]; mean, UVA, p.m. dosing): 28.750 J/cm^2 | MED, 24 H, mean ([1]; mean, UVA, p.m. dosing): 28.333 J/cm^2 | MED, 48 H, mean ([1]; mean, UVA, p.m. dosing): 28.182 J/cm^2 | MED, 72 H, mean ([1]; mean, UVA, p.m. dosing): 28.500 J/cm^2 | CHANGE BASELINE, delayed MED, mean ([1]; mean, UVA, p.m. dosing, p=1.000): 0.000 J/cm^2 | overall incidence of adverse events [2]: 18% | photosensitivity reactions [2]: no photosensitivity reactions reported | clinical success in evaluable patients ([2]; 7-9 days posttreatment): 98.1% | fraction unbound (Serum protein binding): ~0.9
